Measurements from ChEMBL document CHEMBL3352554, “Synthesis and structure-activity relationships of 4-fluorophenyl-imidazole p38α MAPK, CK1δ and JAK2 kinase inhibitors” (Bioorg Med Chem Lett, 2014).
pIC50: −log10 of the molar value. Calls of active or inactive are those of the source. The rule behind the calls is not given here.

How the values were obtained:
[1] = molecular target: Tyrosine-protein kinase JAK2 (Homo sapiens, UniProt O60674); test: Inhibition of JAK2 (unknown origin) by radiometric assay
[2] = molecular target: Tyrosine-protein kinase JAK1 (Homo sapiens, UniProt P23458); test: Inhibition of JAK1 (unknown origin) by radiometric assay
[3] = molecular target: T1, Tyrosine-protein kinase JAK3 (Homo sapiens, UniProt P52333); test: Inhibition of JAK3 (unknown origin) by radiometric assay
T1 sequence (P52333 whole entry): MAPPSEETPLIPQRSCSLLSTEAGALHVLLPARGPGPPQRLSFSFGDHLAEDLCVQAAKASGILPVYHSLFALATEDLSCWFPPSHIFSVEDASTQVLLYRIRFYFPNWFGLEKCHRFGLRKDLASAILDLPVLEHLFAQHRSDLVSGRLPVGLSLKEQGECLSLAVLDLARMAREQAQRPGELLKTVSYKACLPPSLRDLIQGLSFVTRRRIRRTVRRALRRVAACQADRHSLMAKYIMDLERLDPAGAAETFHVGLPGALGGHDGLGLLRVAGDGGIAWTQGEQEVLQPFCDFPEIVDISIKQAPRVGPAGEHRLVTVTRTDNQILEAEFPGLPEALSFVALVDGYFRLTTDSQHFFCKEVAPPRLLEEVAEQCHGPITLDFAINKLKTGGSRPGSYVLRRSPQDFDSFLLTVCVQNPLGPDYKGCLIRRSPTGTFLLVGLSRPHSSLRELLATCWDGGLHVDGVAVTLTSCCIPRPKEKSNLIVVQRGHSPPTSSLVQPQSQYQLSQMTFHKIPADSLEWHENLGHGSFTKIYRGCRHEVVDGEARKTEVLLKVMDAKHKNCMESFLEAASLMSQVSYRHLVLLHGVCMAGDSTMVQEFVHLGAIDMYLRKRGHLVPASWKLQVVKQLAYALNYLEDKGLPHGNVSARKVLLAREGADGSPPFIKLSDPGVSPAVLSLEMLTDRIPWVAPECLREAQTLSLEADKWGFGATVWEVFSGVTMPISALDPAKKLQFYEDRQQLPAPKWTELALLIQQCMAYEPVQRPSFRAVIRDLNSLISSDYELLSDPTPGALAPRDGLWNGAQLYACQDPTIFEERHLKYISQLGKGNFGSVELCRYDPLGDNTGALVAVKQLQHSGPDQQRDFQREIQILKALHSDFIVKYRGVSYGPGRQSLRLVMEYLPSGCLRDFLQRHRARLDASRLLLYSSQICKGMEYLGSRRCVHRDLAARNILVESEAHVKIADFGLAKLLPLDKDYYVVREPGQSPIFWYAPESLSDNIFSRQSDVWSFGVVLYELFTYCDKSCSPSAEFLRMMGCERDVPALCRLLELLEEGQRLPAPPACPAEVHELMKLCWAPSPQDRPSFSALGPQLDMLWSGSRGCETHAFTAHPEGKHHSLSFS

[4] = molecular target: T2, Mitogen-activated protein kinase 14 (Homo sapiens, UniProt Q16539); test: Inhibition of p38alpha MAPK (unknown origin) by radiometric assay
[5] = molecular target: Casein kinase I isoform delta (Homo sapiens, UniProt P48730); test: Inhibition of CK1-delta (unknown origin) by radiometric assay
[6] = molecular target: T2, Mitogen-activated protein kinase 14; test: Inhibition of p38alpha MAPK in TNF-alpha-induced HUVEC assessed as downregulation of VCAM-1 mRNA expression at 10 uM incubated for 4 hrs by RT-PCR analysis; type: cell-based
[7] = molecular target: T2, Mitogen-activated protein kinase 14; test: Inhibition of p38alpha MAPK in TNF-alpha-induced HUVEC assessed as downregulation of IL-6 mRNA expression at 10 uM incubated for 4 hrs by RT-PCR analysis; type: cell-based
[8] = molecular target: T2, Mitogen-activated protein kinase 14; test: Inhibition of p38alpha MAPK in TNF-alpha-induced HUVEC assessed as downregulation of COX-2 mRNA expression at 10 uM incubated for 4 hrs by RT-PCR analysis; type: cell-based
Homo sapiens [9] = species on record: Homo sapiens; test: Selectivity ratio of IC50 for p38alpha MAPK (unknown origin) to IC50 for JAK2 (unknown origin)
Homo sapiens [10] = species on record: Homo sapiens; test: Selectivity ratio of IC50 for p38alpha MAPK (unknown origin) to IC50 for CK1-delta (unknown origin)

Tyrosine-protein kinase JAK2, sequence (O60674 whole entry): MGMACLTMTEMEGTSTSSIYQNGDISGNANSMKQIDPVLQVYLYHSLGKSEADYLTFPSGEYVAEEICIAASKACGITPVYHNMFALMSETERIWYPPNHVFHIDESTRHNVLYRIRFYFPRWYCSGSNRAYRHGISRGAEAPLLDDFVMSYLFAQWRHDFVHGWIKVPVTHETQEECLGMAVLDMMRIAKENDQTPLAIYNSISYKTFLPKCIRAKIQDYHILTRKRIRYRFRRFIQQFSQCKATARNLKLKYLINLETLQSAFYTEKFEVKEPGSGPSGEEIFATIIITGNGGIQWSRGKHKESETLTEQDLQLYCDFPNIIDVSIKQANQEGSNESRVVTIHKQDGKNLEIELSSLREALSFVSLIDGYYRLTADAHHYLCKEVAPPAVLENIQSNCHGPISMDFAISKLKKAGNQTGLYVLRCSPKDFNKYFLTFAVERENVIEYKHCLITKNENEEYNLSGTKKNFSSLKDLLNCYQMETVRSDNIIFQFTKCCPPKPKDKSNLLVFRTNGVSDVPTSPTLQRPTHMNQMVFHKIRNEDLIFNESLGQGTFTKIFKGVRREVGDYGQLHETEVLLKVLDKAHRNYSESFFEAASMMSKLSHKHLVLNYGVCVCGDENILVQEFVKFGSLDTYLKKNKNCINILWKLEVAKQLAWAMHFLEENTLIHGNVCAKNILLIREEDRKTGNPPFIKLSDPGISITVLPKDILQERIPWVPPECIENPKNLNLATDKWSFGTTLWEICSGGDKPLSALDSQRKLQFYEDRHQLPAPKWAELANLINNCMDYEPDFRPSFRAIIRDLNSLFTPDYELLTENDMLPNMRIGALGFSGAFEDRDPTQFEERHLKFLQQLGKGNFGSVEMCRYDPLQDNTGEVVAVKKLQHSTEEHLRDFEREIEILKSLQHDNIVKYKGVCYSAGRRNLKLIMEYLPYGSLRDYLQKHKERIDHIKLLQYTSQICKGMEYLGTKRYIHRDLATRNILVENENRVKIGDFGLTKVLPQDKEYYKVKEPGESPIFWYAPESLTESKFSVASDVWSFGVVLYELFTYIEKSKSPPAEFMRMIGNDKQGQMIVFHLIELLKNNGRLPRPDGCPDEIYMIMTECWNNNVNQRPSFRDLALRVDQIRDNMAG
Casein kinase I isoform delta, sequence (P48730 whole entry, canonical isoform): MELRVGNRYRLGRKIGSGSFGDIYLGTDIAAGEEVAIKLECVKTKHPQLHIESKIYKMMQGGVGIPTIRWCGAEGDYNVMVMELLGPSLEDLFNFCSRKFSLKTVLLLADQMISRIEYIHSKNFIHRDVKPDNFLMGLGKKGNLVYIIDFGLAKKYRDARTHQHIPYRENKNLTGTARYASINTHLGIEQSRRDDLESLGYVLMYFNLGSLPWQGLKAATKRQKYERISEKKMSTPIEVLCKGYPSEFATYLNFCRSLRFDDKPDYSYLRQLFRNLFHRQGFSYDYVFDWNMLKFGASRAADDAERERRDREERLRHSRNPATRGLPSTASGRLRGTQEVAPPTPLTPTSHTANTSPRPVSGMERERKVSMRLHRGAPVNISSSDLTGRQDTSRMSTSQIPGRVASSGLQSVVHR
Tyrosine-protein kinase JAK1, sequence (P23458 whole entry): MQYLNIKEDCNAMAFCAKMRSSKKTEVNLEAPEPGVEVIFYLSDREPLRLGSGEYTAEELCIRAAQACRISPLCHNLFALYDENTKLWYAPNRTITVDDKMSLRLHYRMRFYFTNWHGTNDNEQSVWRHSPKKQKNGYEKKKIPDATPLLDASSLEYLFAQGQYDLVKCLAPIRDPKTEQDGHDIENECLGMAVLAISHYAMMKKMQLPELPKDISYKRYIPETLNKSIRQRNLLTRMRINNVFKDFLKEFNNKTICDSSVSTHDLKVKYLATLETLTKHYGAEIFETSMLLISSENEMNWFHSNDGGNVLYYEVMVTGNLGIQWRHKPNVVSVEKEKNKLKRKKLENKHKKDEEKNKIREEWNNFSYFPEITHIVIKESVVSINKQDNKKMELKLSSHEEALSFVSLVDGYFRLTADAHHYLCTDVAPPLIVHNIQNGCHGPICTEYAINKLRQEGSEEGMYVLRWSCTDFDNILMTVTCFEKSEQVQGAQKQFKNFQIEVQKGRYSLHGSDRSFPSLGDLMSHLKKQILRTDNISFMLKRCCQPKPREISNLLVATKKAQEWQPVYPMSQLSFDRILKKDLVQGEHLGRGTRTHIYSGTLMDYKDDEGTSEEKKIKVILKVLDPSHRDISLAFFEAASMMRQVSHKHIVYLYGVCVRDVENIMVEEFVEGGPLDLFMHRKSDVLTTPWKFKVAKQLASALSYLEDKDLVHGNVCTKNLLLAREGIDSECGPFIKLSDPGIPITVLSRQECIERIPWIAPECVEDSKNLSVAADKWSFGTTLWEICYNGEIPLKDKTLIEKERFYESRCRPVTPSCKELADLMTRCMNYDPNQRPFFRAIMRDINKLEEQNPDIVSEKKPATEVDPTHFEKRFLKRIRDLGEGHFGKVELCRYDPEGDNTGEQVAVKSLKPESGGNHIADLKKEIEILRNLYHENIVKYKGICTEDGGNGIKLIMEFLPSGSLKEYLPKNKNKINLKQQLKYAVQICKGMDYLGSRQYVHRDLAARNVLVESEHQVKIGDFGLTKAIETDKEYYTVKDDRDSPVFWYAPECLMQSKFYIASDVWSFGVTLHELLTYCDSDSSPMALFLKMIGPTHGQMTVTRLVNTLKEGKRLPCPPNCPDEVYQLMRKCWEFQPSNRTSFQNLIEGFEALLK
T2 sequence (Q16539 whole entry, canonical isoform): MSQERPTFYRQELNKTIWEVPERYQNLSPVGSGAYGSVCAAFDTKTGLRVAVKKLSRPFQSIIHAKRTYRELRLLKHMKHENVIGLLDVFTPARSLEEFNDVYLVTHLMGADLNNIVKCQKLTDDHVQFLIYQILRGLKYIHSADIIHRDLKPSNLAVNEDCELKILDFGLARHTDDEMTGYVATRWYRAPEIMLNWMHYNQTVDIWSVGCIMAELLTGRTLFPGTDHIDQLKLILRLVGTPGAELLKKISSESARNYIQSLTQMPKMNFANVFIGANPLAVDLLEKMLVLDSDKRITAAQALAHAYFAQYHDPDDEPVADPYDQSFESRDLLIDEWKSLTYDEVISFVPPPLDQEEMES

pIC50 [1] | pIC50 [2] | pIC50 [3] | pIC50 [4] | pIC50 [5] | inhibition [6] | inhibition [7] | inhibition [8] | Ratio IC50 (Homo sapiens [9]) | Ratio IC50 (Homo sapiens [10]) | Structure (SMILES)
4.84 | < 5.00 | < 4.00 | 5.03 | 4.70 |  |  |  |  |  | C#Cc1ccc(-c2nc(-c3ccc(F)cc3)c(-c3cc[nH]c(=O)c3)[nH]2)cc1
< 4.00 | < 4.00 | < 4.00 | 5.60 | < 4.00 |  |  |  |  |  | C#Cc1ccn2c(-c3ccnc(SC)n3)c(-c3ccc(F)cc3)nc2n1
< 4.00 | < 4.00 | < 4.00 | 6.60 | < 4.00 |  |  |  |  |  | CSc1nccc(-c2c(-c3ccc(F)cc3)nc3nc(-c4cn(CC(=O)O)nn4)ccn23)n1
6.30 | < 5.00 | 4.97 | 4.73 | 4.75 |  |  |  |  |  | O=c1cc(-c2[nH]c(-c3ccc(-c4cn(CCO)nn4)cc3)nc2-c2ccc(F)cc2)cc[nH]1
< 4.00 | < 4.00 | < 4.00 | 5.61 | 5.51 |  |  |  |  |  | CCOP(=O)(CCn1cc(-c2nc(-c3ccc(F)cc3)c(-c3ccncc3)n2C)nn1)OCC
6.45 | 4.10 | 5.52 | 4.48 | 4.61 |  |  |  |  |  | CCOC(=O)Cn1cc(-c2ccc(-c3nc(-c4ccc(F)cc4)c(-c4cc[nH]c(=O)c4)[nH]3)cc2)nn1
< 4.00 | < 4.00 | < 4.00 | 6.78 | 5.80 |  |  |  |  |  | Cn1c(-c2cn(-c3ccc(C(=O)O)cc3)nn2)nc(-c2ccc(F)cc2)c1-c1ccncc1
5.18 | 4.77 | 4.93 | 5.94 | 4.92 | inactive | inactive | inactive |  |  | O=c1cc(-c2[nH]c(C3CCNCC3)nc2-c2ccc(F)cc2)cc[nH]1
< 4.00 | < 4.00 | < 4.00 | < 4.00 | < 4.00 |  |  |  |  |  | CSc1nccc(-c2c(-c3ccc(F)cc3)nc3nc(-c4cn(CCP(=O)(O)O)nn4)ccn23)n1
< 4.00 | < 4.00 | < 4.00 |  | 6.36 |  |  |  |  |  | Cn1c(-c2cn([C@H]3CCNC[C@@H]3F)nn2)nc(-c2ccc(F)cc2)c1-c1ccncc1
6.56 | 4.85 | 5.41 | 5.53 | 4.61 | inactive | inactive | inactive | 10 | 10 | O=C(O)c1ccc(-c2nc(-c3ccc(F)cc3)c(-c3cc[nH]c(=O)c3)[nH]2)cc1
< 4.00 | < 4.00 | < 4.00 |  | 6.65 |  |  |  |  |  | Cn1c(-c2cn(CCP(=O)(O)O)nn2)nc(-c2ccc(F)cc2)c1-c1ccncc1
< 4.00 | < 4.00 | 4.11 | 7.02 | 5.22 |  |  |  |  |  | CSc1nccc(-c2[nH]c(-c3ccc(O)cc3)nc2-c2ccc(F)cc2)n1
< 4.00 | < 4.00 | < 4.00 | 5.99 | 6.36 |  |  |  |  |  | Cn1c(-c2cn([C@@H]3[C@@H](O)[C@H](O)[C@@H](CO)O[C@H]3O)nn2)nc(-c2ccc(F)cc2)c1-c1ccncc1
< 4.00 | < 4.00 | < 4.00 | 6.11 | 6.62 |  |  |  |  |  | Cn1c(-c2cn(CCO)nn2)nc(-c2ccc(F)cc2)c1-c1ccncc1
< 4.00 | < 4.00 | < 4.00 | 6.92 | < 4.00 |  |  |  |  |  | CSc1nccc(-c2c(-c3ccc(F)cc3)nc3nc(N)ccn23)n1
< 4.00 | < 4.00 | < 4.00 | 4.92 | 4.67 |  |  |  |  |  | CCOP(=O)(CCn1cc(-c2ccn3c(-c4ccnc(SC)n4)c(-c4ccc(F)cc4)nc3n2)nn1)OCC
6.04 | 4.26 | 4.84 | 5.30 | 4.71 | inactive | inactive | inactive |  |  | O=c1cc(-c2[nH]c(-c3ccc(O)cc3)nc2-c2ccc(F)cc2)cc[nH]1
< 4.00 | < 4.00 | < 4.00 |  | 7.05 |  |  |  |  |  | Cn1c(-c2cn(-c3cccc(C(=O)O)c3)nn2)nc(-c2ccc(F)cc2)c1-c1ccncc1
< 4.00 | < 4.00 | < 4.00 | 6.68 | 6.69 |  |  |  |  |  | Cn1c(-c2c[nH]nn2)nc(-c2ccc(F)cc2)c1-c1ccncc1
< 4.00 | < 4.00 | < 4.00 | 8.07 | < 4.00 |  |  |  |  |  | C[C@H](Nc1nccc(-c2c(-c3ccc(F)cc3)nc3nc(N)ccn23)n1)c1ccccc1
7.21 | 5.77 | 6.11 | 5.60 | 4.92 |  |  |  |  |  | O=c1cc(-c2[nH]c(-c3ccc(-c4nnn[nH]4)cc3)nc2-c2ccc(F)cc2)cc[nH]1
< 4.00 | < 4.00 | < 4.00 |  | 6.73 |  |  |  |  |  | Oc1ccc(-c2nc(-c3ccncc3)c(-c3ccc(F)cc3)[nH]2)cc1 [SB-202190]
5.38 | 4.62 | 4.43 | < 4.00 | 4.35 |  |  |  |  |  | CCOP(=O)(CCn1cc(-c2ccc(-c3nc(-c4ccc(F)cc4)c(-c4cc[nH]c(=O)c4)[nH]3)cc2)nn1)OCC
 | < 4.00 | < 4.00 | < 4.00 | 4.97 |  |  |  |  |  | O=c1cc(-c2[nH]c(-c3ccc(-c4cn(CCP(=O)(O)O)nn4)cc3)nc2-c2ccc(F)cc2)cc[nH]1
5.43 | < 4.00 | 4.67 | 5.17 | 4.67 | inactive | inactive | inactive |  |  | O=C(O)c1cc(-c2nc(-c3ccc(F)cc3)c(-c3cc[nH]c(=O)c3)[nH]2)ccc1O
< 4.00 | < 4.00 | < 4.00 | 4.09 | 4.18 |  |  |  |  |  | C#Cc1ccc(-c2nc(-c3ccc(F)cc3)c(-c3ccnc(SC)n3)[nH]2)cc1
